Experimental data as given in BindingDB's records for doi:10.7270/Q2639NCQ (The Scripps Research Institute Molecular Screening Center, 2013).

Biological target: T1, Mitochondrial peptide methionine sulfoxide reductase (Bos taurus, UniProt P54149)
T1 sequence (P54149 whole entry): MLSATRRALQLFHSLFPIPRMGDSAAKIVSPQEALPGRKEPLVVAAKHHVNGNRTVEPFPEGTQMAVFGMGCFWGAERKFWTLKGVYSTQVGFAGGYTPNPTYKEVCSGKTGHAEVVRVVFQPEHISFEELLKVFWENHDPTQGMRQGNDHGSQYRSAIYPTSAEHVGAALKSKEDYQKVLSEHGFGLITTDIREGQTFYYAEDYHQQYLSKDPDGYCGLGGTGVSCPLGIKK

Row | Structure (SMILES) | IC50 [µM]
1 | O=C(c1ccccc1)c1coc2c1C(=O)c1ccccc1C2=O [3-benzoylbenzo[f]benzofuran-4,9-dione] | > 155
2 | N#Cc1c(N2CCCC2)ccc(Br)c1Cl [3-bromo-2-chloro-6-tetrahydro-1H-pyrrol-1-ylbenzonitrile] | > 155
3 | O=C1C(Cl)=C(NCCCN2CCOCC2)C(=O)N1CCc1ccccc1 [3-chloro-4-{[3-(4-morpholinyl)propyl]amino}-1-(2-phenylethyl)-1H-pyrrole-2,5-dione] | > 155
4 | CCc1noc(C)c1C(=O)Nc1nc(-c2ccc(F)cc2)c(C)s1 [3-ethyl-N-[4-(4-fluorophenyl)-5-methyl-1,3-thiazol-2-yl]-5-methyl-1,2-oxazole-4-carboxamide] | > 155
5 | CC(N=Nc1ccc(C#N)cc1[N+](=O)[O-])C1C=CC(=O)C=C1 (centres undefined) [3-nitro-4-[2-[1-(4-oxidanylidenecyclohexa-2,5-dien-1-ylidene)ethyl]hydrazinyl]benzenecarbonitrile] | > 155
6 | CCOC(=O)c1cc2c(ccc3ccccc32)oc1=O [3-oxo-2-benzo[f][1]benzopyrancarboxylic acid ethyl ester] | > 155
7 | NC(=O)c1ccc(Nc2ccc3c(c2)CCC3)c([N+](=O)[O-])c1 [4-(2,3-dihydro-1H-inden-5-ylamino)-3-nitro-benzamide] | > 155
8 | Cc1cc(C)c2nc(C(F)(F)F)nc(N3CC(C)OC(C)C3)c2c1 (centres undefined) [4-(2,6-dimethyl-4-morpholinyl)-6,8-dimethyl-2-(trifluoromethyl)quinazoline] | > 155
9 | c1ccc2c(c1)CCCN2c1nc2ccccc2n2cnnc12 [4-(3,4-dihydro-2H-quinolin-1-yl)-[1,2,4]triazolo[4,3-a]quinoxaline] | > 155
10 | CCCCCc1c(-c2cccc(OC)c2)ncn1CCc1ccccc1OC [4-(3-methoxyphenyl)-1-[2-(2-methoxyphenyl)ethyl]-5-pentyl-imidazole;2,2,2-tris(fluoranyl)ethanoic acid] | > 155
11 | COc1ccc(-c2cc(=O)oc3c(C)c(OC(C)C(C)=O)ccc23)cc1 (centres undefined) [4-(4-methoxyphenyl)-8-methyl-7-(3-oxobutan-2-yloxy)-1-benzopyran-2-one] | > 155
12 | c1ccc2c(c1)nc(N1CCOCC1)c1nnnn12 [4-(4-tetrazolo[1,5-a]quinoxalinyl)morpholine] | > 155
13 | C#Cc1cccc(Nc2nc(NCCOC)nc3ccsc23)c1 [4-N-(3-ethynylphenyl)-2-N-(2-methoxyethyl)thieno[3,2-d]pyrimidine-2,4-diamine] | > 155
14 | Cc1ccc(S(=O)(=O)NCCNc2ccc([N+](=O)[O-])cc2C(F)(F)F)cc1 [4-methyl-N-(2-{[4-nitro-2-(trifluoromethyl)phenyl]amino}ethyl)benzenesulfonamide] | > 155
15 | Cc1cc(OCC(=O)N2CCc3ccccc3C2)c2c(-c3ccccc3)cc(=O)oc2c1 [5-[2-(3,4-dihydro-2(1H)-isoquinolinyl)-2-oxoethoxy]-7-methyl-4-phenyl-2H-chromen-2-one] | > 155
16 | CC(Nc1cc(N2CCN(S(C)(=O)=O)CC2)ccc1[N+](=O)[O-])c1ccccc1 (centres undefined) [5-[4-(methylsulfonyl)-1-piperazinyl]-2-nitro-N-(1-phenylethyl)aniline] | > 155
17 | COC(=O)c1ccc(S(=O)(=O)N2CCCN(Cc3cccc(Br)c3F)CC2)n1C [5-[[4-[(3-bromo-2-fluorophenyl)methyl]-1,4-diazepan-1-yl]sulfonyl]-1-methyl-2-pyrrolecarboxylic acid methyl ester] | > 155
18 | O=[N+]([O-])c1cc([N+](=O)[O-])c(N2CCOCC2)cc1NCc1ccccc1 [5-morpholin-4-yl-2,4-dinitro-N-(phenylmethyl)aniline] | > 155
19 | Cc1ccccc1-n1c(SCc2cccc(F)c2)nc2[nH]ncc2c1=O [6-[(3-fluorobenzyl)thio]-5-(2-methylphenyl)-2,5-dihydro-4H-pyrazolo[3,4-d]pyrimidin-4-one] | > 155

Row | Structure (SMILES) | IC50 [µM]
20 | CCC(C)c1ccccc1NC(=O)COC(=O)C1=NN(c2ccccc2)C(=O)CC1 (centres undefined) [6-oxo-1-phenyl-4,5-dihydropyridazine-3-carboxylic acid [2-(2-butan-2-ylanilino)-2-oxoethyl] ester] | > 155
21 | CCc1nccn1C(=O)c1cnn2c(C(F)F)cc(-c3ccc(C)cc3)nc12 [7-(difluoromethyl)-3-[(2-ethyl-1H-imidazol-1-yl)carbonyl]-5-(4-methylphenyl)pyrazolo[1,5-a]pyrimidine] | > 155
22 | Cc1c(O)ccc2c(-c3ccccc3)cc(=O)oc12 [7-hydroxy-8-methyl-4-phenyl-1-benzopyran-2-one] | > 155
23 | COc1cccc(Nc2nc3cc(OC)ccc3cc2C#N)c1 [7-methoxy-2-(3-methoxyanilino)-3-quinolinecarbonitrile] | > 155
24 | CC(=O)COc1ccc2c(-c3ccccc3)cc(=O)oc2c1C [8-methyl-7-(2-oxidanylidenepropoxy)-4-phenyl-chromen-2-one] | > 155
25 | COC(=O)N1[C@H](C)C=C[C@]1(Cc1ccccc1)C(=O)NCCCNc1ncc(C(F)(F)F)cc1Cl [(2R,5R)-5-[[3-[[3-chloro-5-(trifluoromethyl)-2-pyridinyl]amino]propylamino]-oxomethyl]-2-methyl-5-(phenylmethyl)-2H-pyrrole-1-carboxylic acid methyl ester] | > 155
26 | Cc1cccc(Nc2oc3cc(=O)ccc-3cc2C(N)=O)c1 [(2Z)-7-hydroxy-2-[(3-methylphenyl)imino]-2H-chromene-3-carboxamide] | > 155
27 | Cc1ccc(Nc2[nH]nc(C)c2[N+](=O)[O-])cc1C [(3,4-Dimethyl-phenyl)-(5-methyl-4-nitro-2H-pyrazol-3-yl)-amine] | > 155
28 | COc1ccccc1-c1[nH]nc2c1[C@H](C)CC[C@H]2C(C)C [(4R,7S)-3-(2-methoxyphenyl)-4-methyl-7-propan-2-yl-4,5,6,7-tetrahydro-1H-indazole] | > 155
29 | CC(C)(C)c1cc([N+](=O)[O-])cc(C(C)(C)C)c1O [MLS000755910] | > 155
30 | CCOP(=O)(CCP(=O)(OCC)OCC)OCC [MLS002702923] | 11
31 | Cc1cc([N+](=O)[O-])ccc1Nc1nc2ccccc2n2cnnc12 [N-(2-methyl-4-nitrophenyl)[1,2,4]triazolo[4,3-a]quinoxalin-4-amine] | > 155
32 | COc1cccc(Nc2nc3ccccc3n3nnnc23)c1 [N-(3-methoxyphenyl)-[1,2,3,4]tetrazolo[1,5-a]quinoxalin-4-amine] | > 155
33 | CCOc1ccc(N(C)S(=O)(=O)c2cc(-c3cc(C)no3)ccc2CC)cc1 [N-(4-ethoxyphenyl)-2-ethyl-N-methyl-5-(3-methyl-1,2-oxazol-5-yl)benzenesulfonamide] | > 155
34 | CCOc1ccc(N(C)S(=O)(=O)c2cc(-c3cc(C)no3)ccc2C(C)C)cc1 [N-(4-ethoxyphenyl)-N-methyl-5-(3-methyl-1,2-oxazol-5-yl)-2-propan-2-yl-benzenesulfonamide] | > 155
35 | Cc1nn2c(=O)cc(CSc3ccccc3NC(=O)c3ccccc3)nc2s1 [N-[2-[(2-methyl-5-oxo-[1,3,4]thiadiazolo[3,2-a]pyrimidin-7-yl)methylsulfanyl]phenyl]benzamide] | > 155
36 | COc1ccc2nc(C)cc(N=NCc3ccc(F)cc3)c2c1 [N-[(4-fluorophenyl)methylideneamino]-6-methoxy-2-methyl-4-quinolinamine] | 12.8
37 | COc1ccc(C=NNC(=O)C(C=Nc2nccc(C)n2)NC(=O)c2ccccc2)cc1 (centres undefined) [N-[(E)-3-[(2Z)-2-[(4-methoxyphenyl)methylidene]hydrazinyl]-1-[(4-methylpyrimidin-2-yl)amino]-3-oxidanylidene-prop-1-en-2-yl]benzamide] | 149

Continued, values first:

Row | IC50 [µM] | Structure (SMILES)
38 | > 155 | CSc1nc2nc3c(c-2c2nn[nH]n12)CCCC3 [MLS000071223]
39 | > 155 | CSc1nc2sc3c(c2c2nnnn12)CCCC3 [MLS000071273]
40 | > 155 | Cc1nc2scc(-c3cccs3)c2c(=O)n1-n1cccc1 [MLS000113688]
41 | > 155 | CCc1noc(C)c1C(=O)Nc1nc(-c2cc(C)ccc2C)c(C)s1 [MLS000324834]
42 | > 155 | Cc1ccc(Nc2ccc(C(N)=O)cc2[N+](=O)[O-])cc1C [MLS000334544]
43 | > 155 | O=C(N/N=C/c1sc(N2CCOCC2)nc1-c1ccccc1)c1ccc(O)cc1 [MLS000336683]
44 | > 155 | O=c1oc2ccccc2c2c1cnc1ccccc12 [MLS000518195]
45 | > 155 | Cc1nn(Cc2ccc(Cl)cc2)c(=O)n1N(C)c1ncc(C(F)(F)F)cc1Cl [MLS000541367]
46 | > 155 | Cc1ccccc1Nc1c(N)c(=O)oc2ccccc12 [MLS000563389]
47 | > 155 | Cc1ccc(C)n1-n1c(C)nc2scc(-c3ccccc3)c2c1=O [MLS000564386]
48 | > 155 | CCOC(=O)C(C#N)C=Nc1ccccc1OC (centres undefined) [MLS000568396]
49 | > 155 | CC(Nc1cc(N2CCOCC2)ccc1[N+](=O)[O-])c1ccccc1 (centres undefined) [MLS000573605]
50 | > 155 | COc1ccc(-c2cc(C(F)F)n3ncc(C(=O)n4ccnc4C)c3n2)cc1 [MLS000581677]
51 | > 155 | O=C1c2ccccc2C(=O)c2cc(S(=O)(=O)Nc3ccccc3)ccc21 [MLS000585519]
52 | > 155 | CC(Nc1cc(N2CCN(S(=O)(=O)N(C)C)CC2)ccc1[N+](=O)[O-])c1ccccc1 (centres undefined) [MLS000676463]
53 | > 155 | Cc1ccc(Nc2[nH]nc(C)c2[N+](=O)[O-])c(C)c1 [MLS000700556]
54 | > 155 | CCN(CC)c1ccc(/C=N/NC(=O)CNC(=O)/C=C/c2ccco2)cc1 [MLS000912185]
55 | > 155 | Cc1ccccc1-c1nc(C#N)c(N2CCCCC2)o1 [MLS001165046]
56 | > 155 | COC(=O)COc1ccc2oc(=O)cc(-c3cc4cccc(OC)c4o3)c2c1 [MLS001167553]
57 | > 155 | COC(=O)COc1ccc2oc(=O)cc(-c3cc4ccccc4o3)c2c1 [MLS001167555]
58 | > 155 | COc1ccc2[nH]c(C(=O)N/N=C/c3ccc(OC)c(O)c3)cc2c1 [MLS001214387]
59 | > 155 | C#Cc1cccc(Nc2nc(NCc3ccccc3OC)nc3ccsc23)c1 [MLS003123009]
